Experimental data from ChEMBL document CHEMBL1177749, “Tetracyclic chromane derivatives from Rhododendron anthopogonoides” (J Nat Prod, 2010).

System: Mast cell
Assay: Inhibition of compound 48/80-induced histamine release in Wister rat Peritoneal mast cells
Format: functional, cell-based

| Structure (SMILES) | IC50 [µM] |
| --- | --- |
| Cc1cc2c(c(O)c1C(=O)O)[C@H]1[C@@H]3[C@@](C)(CCC[C@]3(C)O2)[C@H]1C(=O)CC(C)C [ANTHOPOGOCHROMANE] | 114 |
| C/C(=C\CC[C@@]1(C)C=Cc2c(cc(C)c(C(=O)O)c2O)O1)CC(=O)CC(C)C [ANTHOPOGOCHROMENE A] | 63 |
| COc1ccc2c(c1)c(CC(=O)O)c(C)n2C(=O)c1ccc(Cl)cc1 [INDOMETHACIN] | 250 |
